Assay: xn = mol fraction of the nth substance listed
Conditions: Liquid, Vibrating tube method

CCCCCCCCCC [decane] + CCCCCCCC
Conditions	mass density [kg/m3]
343.11 K, 1000 kPa, x2 = 0.0616	691.23
343.11 K, 2000 kPa, x2 = 0.0616	692.25
343.11 K, 3000 kPa, x2 = 0.0616	693.27
343.11 K, 4000 kPa, x2 = 0.0616	694.28
343.11 K, 5000 kPa, x2 = 0.0616	695.27
343.11 K, 6000 kPa, x2 = 0.0616	696.28
343.11 K, 7000 kPa, x2 = 0.0616	697.25
343.11 K, 8000 kPa, x2 = 0.0616	698.24
343.11 K, 9000 kPa, x2 = 0.0616	699.21
343.11 K, 10000 kPa, x2 = 0.0616	700.15
343.11 K, 10990 kPa, x2 = 0.0616	701.09
343.11 K, 12000 kPa, x2 = 0.0616	702.04
343.11 K, 13000 kPa, x2 = 0.0616	702.94
343.11 K, 14000 kPa, x2 = 0.0616	703.83
343.11 K, 15000 kPa, x2 = 0.0616	704.71
343.11 K, 16000 kPa, x2 = 0.0616	705.59
343.11 K, 17000 kPa, x2 = 0.0616	706.44
343.11 K, 18000 kPa, x2 = 0.0616	707.29
343.11 K, 19000 kPa, x2 = 0.0616	708.13
343.11 K, 20000 kPa, x2 = 0.0616	708.97
343.11 K, 21000 kPa, x2 = 0.0616	709.77
343.11 K, 22000 kPa, x2 = 0.0616	710.54
343.11 K, 23000 kPa, x2 = 0.0616	711.34
343.11 K, 24000 kPa, x2 = 0.0616	712.11
343.11 K, 25000 kPa, x2 = 0.0616	712.86
343.12 K, 1000 kPa, x2 = 0.2801	686
343.12 K, 1000 kPa, x2 = 0.5314	678.98
343.12 K, 1000 kPa, x2 = 0.7736	671.23
343.12 K, 2000 kPa, x2 = 0.2801	686.96
343.12 K, 2000 kPa, x2 = 0.5314	680.05
343.12 K, 2000 kPa, x2 = 0.7736	672.36
343.12 K, 3000 kPa, x2 = 0.2801	688
343.12 K, 3000 kPa, x2 = 0.5314	681.13
343.12 K, 3000 kPa, x2 = 0.7736	673.44
343.12 K, 4000 kPa, x2 = 0.2801	689.01
343.12 K, 4000 kPa, x2 = 0.5314	682.2
343.12 K, 4000 kPa, x2 = 0.7736	674.54
343.12 K, 5000 kPa, x2 = 0.2801	690.04
343.12 K, 5000 kPa, x2 = 0.5314	683.26
343.12 K, 5000 kPa, x2 = 0.7736	675.64
343.12 K, 6000 kPa, x2 = 0.2801	691.09
343.12 K, 6000 kPa, x2 = 0.5314	684.32
343.12 K, 6000 kPa, x2 = 0.7736	676.76
343.12 K, 7000 kPa, x2 = 0.2801	692.03
343.12 K, 7000 kPa, x2 = 0.5314	685.36
343.12 K, 7000 kPa, x2 = 0.7736	677.83
343.12 K, 8000 kPa, x2 = 0.2801	693.02
343.12 K, 8000 kPa, x2 = 0.5314	686.38
343.12 K, 8000 kPa, x2 = 0.7736	678.88
343.12 K, 9000 kPa, x2 = 0.2801	694
343.12 K, 9000 kPa, x2 = 0.5314	687.39
343.12 K, 9000 kPa, x2 = 0.7736	679.92
343.12 K, 10000 kPa, x2 = 0.2801	694.95
343.12 K, 10000 kPa, x2 = 0.5314	688.38
343.12 K, 10000 kPa, x2 = 0.7736	680.93
343.12 K, 10990 kPa, x2 = 0.2801	695.95
343.12 K, 10990 kPa, x2 = 0.5314	689.37
343.12 K, 10990 kPa, x2 = 0.7736	681.98
343.12 K, 12000 kPa, x2 = 0.2801	696.9
343.12 K, 12000 kPa, x2 = 0.5314	690.34
343.12 K, 12000 kPa, x2 = 0.7736	682.98
343.12 K, 13000 kPa, x2 = 0.2801	697.84
343.12 K, 13000 kPa, x2 = 0.5314	691.29
343.12 K, 13000 kPa, x2 = 0.7736	683.94
343.12 K, 14000 kPa, x2 = 0.2801	698.78
343.12 K, 14000 kPa, x2 = 0.5314	692.24
343.12 K, 14000 kPa, x2 = 0.7736	684.91
343.12 K, 15000 kPa, x2 = 0.2801	699.72
343.12 K, 15000 kPa, x2 = 0.5314	693.17
343.12 K, 15000 kPa, x2 = 0.7736	685.89
343.12 K, 16000 kPa, x2 = 0.2801	700.6
343.12 K, 16000 kPa, x2 = 0.5314	694.09
343.12 K, 16000 kPa, x2 = 0.7736	686.84
343.12 K, 17000 kPa, x2 = 0.2801	701.51
343.12 K, 17000 kPa, x2 = 0.5314	695
343.12 K, 17000 kPa, x2 = 0.7736	687.8
343.12 K, 18000 kPa, x2 = 0.2801	702.35
343.12 K, 18000 kPa, x2 = 0.5314	695.89
343.12 K, 18000 kPa, x2 = 0.7736	688.72
343.12 K, 19000 kPa, x2 = 0.2801	703.17
343.12 K, 19000 kPa, x2 = 0.5314	696.76
343.12 K, 19000 kPa, x2 = 0.7736	689.61
343.12 K, 20000 kPa, x2 = 0.2801	704.02
343.12 K, 20000 kPa, x2 = 0.5314	697.62
343.12 K, 20000 kPa, x2 = 0.7736	690.48
343.12 K, 21000 kPa, x2 = 0.2801	704.83
343.12 K, 21000 kPa, x2 = 0.5314	698.47
343.12 K, 21000 kPa, x2 = 0.7736	691.35
343.12 K, 22000 kPa, x2 = 0.2801	705.63
343.12 K, 22000 kPa, x2 = 0.5314	699.29
343.12 K, 22000 kPa, x2 = 0.7736	692.2
343.12 K, 23000 kPa, x2 = 0.2801	706.41
343.12 K, 23000 kPa, x2 = 0.5314	700.11
